The target of test [1] is Recombinant Human NF-Kappab-Inducing Kinase (NIK/MAP3K14) (Homo sapiens, UniProt Q99558). In words: Inhibition of auto-phosphorylation of recombinant human NIK/MAP3K14 (AlphaScreen). It is filed as biochemical. The note with it: NIK/MAP3K14 auto-phosphorylation, 5 microM ATP, 1 nM enzyme, 2 h at 25° C.; average of values; read-out: Assay 1 IC50. The procedure:
Biological Assay 1: Inhibition of Auto-Phosphorylation of Recombinant Human NF-Kappab-Inducing Kinase (NIK/MAP3K14) Activity (AlphaScreen®)
NIK/MAP3K14 auto-phosphorylation activity was measured using the AlphaScreen® ((αscreen) format (Perkin ElmeR). All compounds tested were dissolved in dimethyl sulfoxide (DMSO) and further dilutions were made in assay buffer. Final DMSO concentration was 0.7% (v/v) in assays. Assay buffer was 50 mM Tris pH 7.5 containing 1 mM EGTA (ethylene glycol tetraacetic acid), 1 mM DTT (dithiothreitol), 0.1 mM Na3VO4, 5 mM MgCl2, 0.01% Tween® 20. Assays were carried out in 384 well Proxiplates (Perkin ElmeR). Incubations consisted of compound, 5 microM Adenosine-5′-triphosphate (ATP), and 1 nM NIK/MAP3K14. Incubations were initiated by addition of GST-tagged NIK/MAP3K14 enzyme, carried out for 2 h at 25° C. and terminated by addition of stop buffer containing anti-phospho-IKK Ser176/180 antibody. Protein A Acceptor and Glutathione-donor beads were added before reading using an EnVision® Multilabel Plate Reader (Perkin ElmeR). Signal obtained in the wells was normalized using high (full enzyme activity, 0.7% DMSO) and low controls (no enzyme activity, 0.7% DMSO, no ATP). IC50's were determined by fitting a sigmoidal curve to % inhibition of control versus Log10 compound concentration.

The test system of test [2] is p-IKKα levels in L363 (NIK translocated multiple myeloma) cells. In words: Effect of compounds on p-IKKα levels in L363 cells (AlphaLISA SureFire Ultra). It is filed as cell-based. The note with it: Homo sapiens, L-363; L363 cells, BAFF stimulated, MG132, 6 h; average of values; read-out: Assay 2 IC50. The procedure:
Biological Assay 2: Effect of Compounds on p-IKKα Levels in L363 (NIK Translocated Multiple Myeloma) Cells
All compounds tested were dissolved and serially diluted in DMSO, 1:3 dilution for 11 points in an Echo compatible plate. 100% DMSO is added to columns 12 and 24 of the plate to serve as high and low signal controls. This compound plate was used to spot 20 nl of compound or DMSO into a Greiner 384 well TC plate (781080). Final DMSO concentration was […] (v/v) in cell assays. Human L363 cells (ATCC) were cultured in RPMI 1640 medium supplemented with GlutaMax, non-essential amino acids, sodium pyruvate and 10% fetal bovine serum. Cells were routinely maintained at densities of 0.2×10^6 cells per ml −2×10^6 cells per ml at 37° C. in a humidified 5% CO2 atmosphere incubator. Cells were passaged twice a week splitting back to obtain the low density. The day before the assay, cells were washed twice in HBSS, resuspended in DMEM+0.5% IgG and protease free BSA (Jackson Immuno Research Laboratories), +/−250 ng/ml recombinant human B-cell activating factor (BAFF/BLyS/TNFSF13B) and incubated overnight at 37° C. in a humidified 5% CO2 atmosphere (bulk stimulation with or without BAFF). The next day, cell concentration was adjusted to 1×10^7 cells/ml in DMEM+/−250 ng/ml BAFF+/−10 uM MG132 and plated at 10 ul/well into compound or DMSO spotted 384 well TC plates. Seeded cells were incubated at 37° C. in a humidified 5% CO2 atmosphere for 6 h. After 6 h, plates were removed from the incubator and cell lysis was achieved by the addition of 2.5 μl 5× lysis buffer containing protease and phosphatase inhibitors, followed by shaking on a plate shaker at room temperature for 15 min. At the end of this incubation, lysed cells were sequentially treated and incubated with acceptor and donor bead mixes according to the manufacturer's protocol for a 1 plate/2-incubation suspension cell assay (AlphaLISA SureFire Ultra p-IKKα (Ser 176/180) Assay Kit (Perkin ElmeR). Plates were read using an EnVision® Multilabel Plate Reader (Perkin ElmeR). Within an experiment, a concentration response curve for each compound was run in duplicate. Signal obtained in the test wells was normalized using high signal (BAFF stimulated cells, DMSO, MG132) and low signal (unstimulated cells, DMSO) controls. To determine the IC50, a sigmoidal curve was fitted to the plot of % inhibition versus Log10 compound concentration.

Each structure is given as a SMILES string.

Chain of Recombinant Human NF-Kappab-Inducing Kinase (NIK/MAP3K14) (Q99558 whole entry): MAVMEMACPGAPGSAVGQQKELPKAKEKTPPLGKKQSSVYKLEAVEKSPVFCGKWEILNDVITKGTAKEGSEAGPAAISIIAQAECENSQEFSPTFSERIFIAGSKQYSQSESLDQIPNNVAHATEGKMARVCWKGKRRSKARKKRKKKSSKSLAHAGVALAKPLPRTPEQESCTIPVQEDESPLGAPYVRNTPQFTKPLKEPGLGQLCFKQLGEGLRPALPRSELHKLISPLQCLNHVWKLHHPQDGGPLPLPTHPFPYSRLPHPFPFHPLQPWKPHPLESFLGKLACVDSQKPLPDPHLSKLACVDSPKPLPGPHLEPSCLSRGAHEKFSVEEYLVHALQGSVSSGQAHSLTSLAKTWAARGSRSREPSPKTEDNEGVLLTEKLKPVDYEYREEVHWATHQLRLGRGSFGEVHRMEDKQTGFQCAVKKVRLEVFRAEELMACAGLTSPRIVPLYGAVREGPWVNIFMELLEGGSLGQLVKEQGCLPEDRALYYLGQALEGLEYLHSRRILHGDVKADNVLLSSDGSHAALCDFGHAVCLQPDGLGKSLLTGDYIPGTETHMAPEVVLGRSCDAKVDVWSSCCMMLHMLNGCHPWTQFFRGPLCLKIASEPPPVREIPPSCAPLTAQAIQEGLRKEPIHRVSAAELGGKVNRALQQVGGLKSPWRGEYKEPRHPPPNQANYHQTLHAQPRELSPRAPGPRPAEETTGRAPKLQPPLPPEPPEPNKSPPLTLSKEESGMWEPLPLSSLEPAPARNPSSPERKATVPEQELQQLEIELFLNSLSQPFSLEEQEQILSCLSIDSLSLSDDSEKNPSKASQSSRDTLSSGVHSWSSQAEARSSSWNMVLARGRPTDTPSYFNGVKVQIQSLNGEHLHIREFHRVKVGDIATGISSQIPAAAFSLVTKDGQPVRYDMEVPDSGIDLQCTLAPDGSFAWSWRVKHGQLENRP

For `Cc1ncnc2ccc(-c3cccc(-c4cc([C@]5(O)CCN(C)C5=O)on4)c3)nc12` [Example 25, (R)-3-Hydroxy-1-methyl-3-(3-(3-(4-methylpyrido[3,2-d]pyrimidin-6-yl)phenyl)isoxazol-5-yl)pyrrolidin-2-one], the IC50 in test [1] was 100 to 500 nM; in test [2] it was > 501 nM.
Take `Cc1cc(-c2cccc(-c3cc([C@]4(O)CCN(C)C4=O)on3)c2)nc2c(N)ncnc12` [Example 26, (R)-3-(3-(3-(4-Amino-8-methylpyrido[3,2-d]pyrimidin-6-yl)phenyl)isoxazol-5-yl)-3-hydroxy-1-methylpyrrolidin-2-one]: the IC50 in test [1] and in test [2] was < 100 nM each time.
Regarding `Cc1cc(-c2cccc(-c3cc([C@@]4(O)CCN(C)C4=O)on3)c2)nc2c(N)ncnc12` [Example 27, (S)-3-(3-(3-(4-Amino-8-methylpyrido[3,2-d]pyrimidin-6-yl)phenyl)isoxazol-5-yl)-3-hydroxy-1-methylpyrrolidin-2-one], the IC50 in test [1] and in test [2] was > 501 nM throughout.
Turning to `[2H]c1nc(N)c2nc(-c3cccc(-n4cc([C@]5(O)CCN(C)C5=O)nn4)c3)ccc2n1` [Example 35, (R)-3-(1-(3-(4-Aminopyrido[3,2-d]pyrimidin-6-yl-2-d)phenyl)-1H-1,2,3-triazol-4-yl)-3-hydroxy-1-methylpyrrolidin-2-one], the IC50 is < 100 nM in test [1] and > 501 nM in test [2].
For the compound `[2H]c1nc(N)c2nc(-c3cccc(-n4cc([C@@]5(O)CCN(C)C5=O)nn4)c3)ccc2n1` [Example 36, (S)-3-(1-(3-(4-Aminopyrido[3,2-d]pyrimidin-6-yl-2-d)phenyl)-1H-1,2,3-triazol-4-yl)-3-hydroxy-1-methylpyrrolidin-2-one], the IC50 is 100 to 500 nM in test [1] and > 501 nM in test [2].
Regarding `CN1CC[C@](O)(c2cn(-c3cccc(-c4cccc(C(N)=O)n4)c3)nn2)C1=O` [Example 42, (S)-6-(3-(4-(3-Hydroxy-1-methyl-2-oxopyrrolidin-3-yl)-1H-1,2,3-triazol-1-yl)phenyl)picolinamide], the IC50 in test [1] and in test [2] was > 501 nM in each case.
With `Cc1cc(-c2cccc(-c3cc([C@]4(O)CCN(C)C4=O)on3)c2)nc(C(N)=O)c1N` [Example 45, (R)-3-Amino-6-(3-(5-(3-hydroxy-1-methyl-2-oxopyrrolidin-3-yl)isoxazol-3-yl)phenyl)-4-methylpicolinamide], the IC50 in test [1] and in test [2] was < 100 nM each time.
Consider `COc1cc(-c2cccc(-c3cc([C@]4(O)CCN(C)C4=O)on3)c2)nc(C(N)=O)c1N` [Example 46, (R)-3-Amino-6-(3-(5-(3-hydroxy-1-methyl-2-oxopyrrolidin-3-yl)isoxazol-3-yl)phenyl)-4-methoxypicolinamide], for which the half-maximal inhibitory concentration (IC50) in test [1] and in test [2] was < 100 nM in each case.
For `COc1cc(-c2cccc(-c3cc([C@]4(O)CCN(C)C4=O)on3)c2)cc(C(N)=O)n1` [Example 47, (R)-4-(3-(5-(3-Hydroxy-1-methyl-2-oxopyrrolidin-3-yl)isoxazol-3-yl)phenyl)-6-methoxypicolinamide], the IC50 in test [1] and in test [2] was > 501 nM in each case.
For `COc1cc(-c2cccc(-c3cc([C@]4(O)CCN(C)C4=O)on3)c2)nc2c1cnn2C` [Example 48, (R)-3-Hydroxy-3-(3-(3-(4-methoxy-1-methyl-1H-pyrazolo[3,4-b]pyridin-6-yl)phenyl)isoxazol-5-yl)-1-methylpyrrolidin-2-one], the IC50 in test [1] was < 100 nM; in test [2] it was > 501 nM.
`CN1CC[C@@](O)(c2cc(-c3cccc(-c4ccnc5[nH]ccc45)c3)no2)C1=O` [Example 49, (R)-3-(3-(3-(1H-Pyrrolo[2,3-b]pyridin-4-yl)phenyl)isoxazol-5-yl)-3-hydroxy-1-methylpyrrolidin-2-one]: the IC50 in test [1] is < 100 nM; in test [2], > 501 nM.
In the same order, the values of `CN1CC[C@@](O)(c2cc(-c3cccc(-c4cc(C(F)(F)F)c(N)c(C(N)=O)n4)c3)no2)C1=O` [Example 50, (R)-3-Amino-6-(3-(5-(3-hydroxy-1-methyl-2-oxopyrrolidin-3-yl)isoxazol-3-yl)phenyl)-4-(trifluoromethyl)picolinamide] are < 100 nM and < 100 nM.
With `CN1CC[C@@](O)(c2cc(-c3cccc(-c4ccc5cncn5c4)c3)no2)C1=O` [Example 51, (R)-3-Hydroxy-3-(3-(3-(imidazo[1,5-a]pyridin-6-yl)phenyl)isoxazol-5-yl)-1-methylpyrrolidin-2-one], the figures for the IC50 in test [1] and in test [2] were 100 to 500 nM and > 501 nM, respectively.
In the case of `CN1CC[C@@](O)(c2cc(-c3cccc(-c4ncnn5cccc45)c3)no2)C1=O` [Example 52, (R)-3-Hydroxy-1-methyl-3-(3-(3-(pyrrolo[2,1-f][1,2,4]triazin-4-yl)phenyl)isoxazol-5-yl)pyrrolidin-2-one], the IC50 in test [1] is 100 to 500 nM; in test [2] it was > 501 nM.
Take `CN1CC[C@@](O)(c2cc(-c3cccc(-c4ccnc(N)c4)c3)no2)C1=O` [Example 53, (R)-3-(3-(3-(2-Aminopyridin-4-yl)phenyl)isoxazol-5-yl)-3-hydroxy-1-methylpyrrolidin-2-one]: the IC50 in test [1] was 100 to 500 nM; in test [2], > 501 nM.
For `CC(=O)Nc1cc(-c2cccc(-c3cc([C@]4(O)CCN(C)C4=O)on3)c2)ccn1` [Example 54, (R)—N-(4-(3-(5-(3-Hydroxy-1-methyl-2-oxopyrrolidin-3-yl)isoxazol-3-yl)phenyl)pyridin-2-yl)acetamide], the IC50 in test [1] is 100 to 500 nM; in test [2], > 501 nM.
In the case of `CCn1ncc2cc(-c3cccc(-c4cc([C@]5(O)CCN(C)C5=O)on4)c3)cnc21` [Example 55, (R)-3-(3-(3-(1-Ethyl-1H-pyrazolo[3,4-b]pyridin-5-yl)phenyl)isoxazol-5-yl)-3-hydroxy-1-methylpyrrolidin-2-one], the IC50 in test [1] and in test [2] was > 501 nM each time.
Take `CN1CC[C@@](O)(c2cc(-c3cccc(-c4cc5c(o4)CCNC5=O)c3)no2)C1=O` [Example 56, (R)-2-(3-(5-(3-hydroxy-1-methyl-2-oxopyrrolidin-3-yl)isoxazol-3-yl)phenyl)-6,7-dihydrofuro[3,2-c]pyridin-4(5H)-one]: the IC50 in test [1] and in test [2] was > 501 nM throughout.
With `Cc1ncn2cc(-c3cccc(-c4cc([C@]5(O)CCN(C)C5=O)on4)c3)ccc12` [Example 57, (R)-3-Hydroxy-1-methyl-3-(3-(3-(1-methylimidazo[1,5-a]pyridin-6-yl)phenyl)isoxazol-5-yl)pyrrolidin-2-one], the IC50 in test [1] and in test [2] was > 501 nM each time.
Regarding `CN1CC[C@@](O)(c2cc(-c3cccc(-c4ccn5nccc5c4)c3)no2)C1=O` [Example 58, (R)-3-hydroxy-1-methyl-3-(3-(3-(pyrazolo[1,5-a]pyridin-5-yl)phenyl)isoxazol-5-yl)pyrrolidin-2-one], the IC50 is 100 to 500 nM in test [1] and > 501 nM in test [2].
Regarding `CN1CC[C@@](O)(c2cc(-c3cccc(-c4cccc5c4CNC5=O)c3)no2)C1=O` [Example 59, (R)-4-(3-(5-(3-hydroxy-1-methyl-2-oxopyrrolidin-3-yl)isoxazol-3-yl)phenyl)isoindolin-1-one], the IC50 in test [1] and in test [2] was > 501 nM in each case.
